Several values for one entry are separate records, joined by “and”; a condition that tells them apart may be missing. Equal entries are not always repeated. Entries after “also recorded” stand apart in the source; their conditions may differ.
Tests used:
[1] = system: Sprague-Dawley Crl:CD(SD) rats; experiment: Rat toxicity study, single, 5-day and 28-day treatment (clinical observation, clinical pathology, autopsy, organ weights, histopathology);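 also: control rats received saline intraperitoneally, and the organs examined were adrenals, brain, kidneys, liver, spleen and thymus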
[2] = system: kidney tissues of treated or untreated rats; experiment: Real-time qRT-PCR of marker transcripts in kidney tissue panel, discovery stage (Table 22); assay type: in vivo, rat; details: listed as CadCl; for normalized Real Time PCR RATRAB13X_DB81_seg15-17 / normalized Real Time PCR RATRAB13X_DB81_seg22 / normalized Real Time PCR W33294_DB81_seg23 / normalized Real Time PCR W33294_DB81_seg44 / normalized Real Time PCR MMU09507_DB81_seg15 / normalized Real Time PCR MUSCYCG1R_DB81_seg19-20: kidney
Experimental: Before RT preparation the RNA was treated with DNA-free (Ambion, cat. No. AM1906) DNase treatment and removal—according to manufacturer protocol. DNase procedure was repeated until no DNA is detected in a PCR reaction using the RNA samples.
The mixture is then incubated for 5 min at 65° C. and then quickly chilled on ice. Thereafter, 20 μl of 5× SuperscriptII first strand buffer (Invitrogen, Cat. No. Y00146), 9.6 μl 0.1M DTT (Invitrogen, Cat. No. Y00147) and 160 units RNasin (Promega, Cat. No. N251A) are added, and the mixture is incubated for 10 min at 25° C., followed by further incubation at 42° C. for 2 min. […] The resulting cDNA is diluted 1:20 in TE buffer (10 mM Tris pH=8, 1 mM EDTA pH=8).
cDNA (5 μl), prepared as described above, is used as a template in Real-Time PCR reactions using the SYBR Green I assay (PE Applied Biosystem) with specific primers in 100 nM concentration if not indicated otherwise and UNG Enzyme (Eurogentech or equal) Amplification is effected as follows: 50° C. for 2 min, 95° C. for 10 min, and then 40 cycles of 95° C. for 15 sec, followed by 60° C. for 1 min (if not indicated otherwise). Amplification step is followed by dissociation step. Detection is performed by using the PE Applied Biosystem SDS 7000. The cycle in which the reactions achieved a threshold level (Ct) of fluorescence is registered and is used to calculate the relative transcript quantity in the RT reactions. Non-detected samples are assigned Ct value of 41 and are calculated accordingly. The relative quantity is calculated using the equation Q=efficiencŷ-Ct. The efficiency of the PCR reaction is calculated from a standard curve, created by using serial dilutions of several reverse transcription (RT) reactions. To minimize inherent differences in the RT reaction, the resulting relative quantities are normalized to normalization factor calculated as follows: […]
The relative quantity (Q) of each housekeeping gene in each sample is calculated as described above. In order to calculate the “relative Q relative to MED” each Q for each HSKP gene is divided by the median quantity of this gene in all panel samples. To finally achieve the normalization factor of each sample the geometric mean of all four “relative Q relative to MED” was calculated. The normalization factor was then used for further calculations.
The markers of the present invention were tested with regard to their expression in a panel of kidney tissues samples from treated and control rats. Unless otherwise noted, all experimental data relates to the novel polynucleotides and proteins of the present invention, named according to the segment being tested (as expression was tested through RT-PCR as described). Tests were then performed as described in the “Materials and Experimental Procedures” section above.
The qRT-PCR measurements were normalized according to each samples normalization factor as described in “RT Preparation and Real-Time qRT-PCR Analysis” and further multiplied by a constant factor for ease of viewing.

[3] = 5-day treatment, compared with controls
[4] = rat kidney, day1, individual animals (F and M)

[Cl][Cd][Cl] [Cadmium chloride]
Autopsy findings ([1]; 5-day treatment): No effect
Body weight gain ([1]; 5-day treatment): Body weight gain decreased in both sexes; also recorded: Decreased body weight gain was recorded in males
Clinical pathology ([1]; 5-day treatment): Slightly increased Gamma GT values were recorded in females; also recorded: ♀: ↑ γGT
Clinical symptoms ([1]; 5-day treatment): mild clinical symptoms (hollow psoas, colic) immediately after the administration
Histopathology / renal damage ([1]; 5-day treatment): No renal damage was found
Organ weight [1, 3]: Lower thymus weights
Water consumption [1, 3]: Decrease in Tobramycin and Cadmium chloride treated females
Body weight and body weight gain ([1]; 28-day treatment): affected body weight gain in both sexes; also recorded: Effect on body weight and body weight gain was seen
Clinical symptoms ([1]; 28-day treatment): Mild clinical symptoms (hollow psoas, colic) were recorded in both sexes; also recorded: Clinical symptoms were observed
Histopathology / nephrotoxicity ([1]; 28-day treatment): significant nephrotoxicity was found only in a single female; also recorded: ♂: lymphoid depletion
Water consumption ([1]; 28-day treatment): Slightly lower water consumption was recorded in males
Clinical pathology ([1]; 28-day treatment, blood and urine): AST (Aspartate Aminotransferase) values were elevated in both sexes; also recorded: A few transitional epithelial cells were observed in the urine of females; also recorded: ♀: trans. epith
Water consumption, males ([1]; 28-day treatment, compared with controls): Sight decrease during the last week
Decreasing order of nephrotoxicity at histopathological examination ([1]; 28-day treatment, females): Cisplatin, Cadmium chloride, Gentamycin, Doxorubicin and Tobramycin in females
Autopsy findings ([1]; 28-day treatment, male and female rats): Round bordered spleen and liver and thickening of peritoneum were recorded in both sexes; also recorded: Pale and enlarged kidneys were found in a single female; also recorded: Round bordered liver, enlarged spleen and thickening of the peritoneum were found in both sexes
Organ weight ([1]; 28-day treatment, male and female rats, compared with controls): higher liver and spleen weight; also recorded: increased weight of kidneys and decreased thymus were recorded in females; also recorded: Increased liver weights in groups of both sexes; also recorded: Higher weights of kidneys in females; also recorded: Weights of spleen were higher in Gentamycin treated males and Cadmium chloride treated groups of both sexes; also recorded: Decreased thymus weights
Clinical symptoms ([1]; single and 5-day treatment): Clinical symptoms were observed only in Cadmium chloride groups of both sexes
Body weight gain ([1]; single treatment): Decreased body weight gain was recorded in both sexes
Clinical pathology ([1]; single treatment): Lower lymphocytes and increased neutrophils counts were found in males
Clinical symptoms ([1]; single treatment): Mild clinical symptoms (hollow psoas, colic) were observed in both sexes
normalized Real Time PCR RATRAB13X_DB81_seg15-17 ([2]; female rats, day1): 1.63 and 1.8 and 1.55
normalized Real Time PCR RATRAB13X_DB81_seg22 ([2]; female rats, day1): 1.73 and 1.83 and 1.16
normalized Real Time PCR W33294_DB81_seg23 ([2]; female rats, day1): 1.9 and 1.74 and 1.36
normalized Real Time PCR W33294_DB81_seg44 ([2]; female rats, day1): 1.79 and 1.39 and 1.57
normalized Real Time PCR MMU09507_DB81_seg15 ([2]; female rats, day5): 0.87 and 0.56
normalized Real Time PCR MUSCYCG1R_DB81_seg19-20 ([2]; female rats, day5): 1.21 and 1.01
normalized Real Time PCR RATRAB13X_DB81_seg15-17 ([2]; female rats, day5): 1.81 and 0.97
normalized Real Time PCR RATRAB13X_DB81_seg22 ([2]; female rats, day5): 1.56 and 1.1
normalized Real Time PCR W33294_DB81_seg23 ([2]; female rats, day5): 1.76 and 1.7
normalized Real Time PCR W33294_DB81_seg44 ([2]; female rats, day5): 2.05 and 1.37
normalized Real Time PCR MUSCYCG1R_DB81_seg19-20 ([2]; female rats, day28): 0.54 and 0.62 and 0.56
normalized Real Time PCR RATRAB13X_DB81_seg15-17 ([2]; female rats, day28): 0.83 and 0.89 and 0.82
normalized Real Time PCR RATRAB13X_DB81_seg22 ([2]; female rats, day28): 0.7 and 0.9 and 0.46
normalized Real Time PCR W33294_DB81_seg23 ([2]; female rats, day28): 0.94 and 0.97 and 0.85
normalized Real Time PCR W33294_DB81_seg44 ([2]; female rats, day28): 0.88 and 0.69 and 0.7
normalized Real Time PCR MUSCYCG1R_DB81_seg19-20 ([2]; male rats, day1): 0.58 and 1.03 and 0.78
normalized Real Time PCR RATRAB13X_DB81_seg15-17 ([2]; male rats, day1): 0.73 and 0.92 and 1.01
normalized Real Time PCR RATRAB13X_DB81_seg22 ([2]; male rats, day1): 0.92 and 1.29 and 0.67
normalized Real Time PCR W33294_DB81_seg23 ([2]; male rats, day1): 0.62 and 0.31 and 0.37
normalized Real Time PCR MMU09507_DB81_seg15 ([2]; male rats, day5): 0.33 and 0.49 and 0.38
normalized Real Time PCR MUSCYCG1R_DB81_seg19-20 ([2]; male rats, day5): 1.22 and 1.12 and 1.04
normalized Real Time PCR RATRAB13X_DB81_seg15-17 ([2]; male rats, day5): 1.18 and 0.88 and 1.07
normalized Real Time PCR RATRAB13X_DB81_seg22 ([2]; male rats, day5): 1.65 and 1.58 and 1.21
normalized Real Time PCR W33294_DB81_seg23 ([2]; male rats, day5): 1.41 and 1.45 and 1.03
normalized Real Time PCR W33294_DB81_seg44 ([2]; male rats, day5): 1.32 and 1.43 and 1.42
normalized Real Time PCR MMU09507_DB81_seg15 ([2]; male rats, day28): 0.42 and 0.45
normalized Real Time PCR RATRAB13X_DB81_seg22 ([2]; male rats, day28): 0.63 and 0.87 and 0.49
normalized Real Time PCR W33294_DB81_seg23 ([2]; male rats, day28): 0.7 and 0.65
normalized Real Time PCR W33294_DB81_seg44 ([2]; male rats, day28): 0.73 and 0.53
H33998_DB71_seg19 normalized Real Time PCR [2, 4]: 2.29 and 2.51 and 0.01 and 0.76 and 0.66 and 0.69
MUSCYCG1R_DB81_seg15-17 normalized Real Time PCR [2, 4]: 1.91 and 1.36 and 1.68 and 0.61 and 0.73 and 0.36
RATLRFI_DB71_seg9 normalized Real Time PCR [2, 4]: 0.27 (2×) and 0.33 and 0.32 and 0.36 and 0.23
RATRAB13X_DB71_seg11-13 normalized Real Time PCR [2, 4]: 0.95 (2×) and 1.2 and 1.05 and 1.22 and 1.14

— US20160177395A1, “BIOMARKERS FOR THE PREDICTION OF RENAL INJURY” (priority 2007, published 2016)
